In PubChem BioAssay (NCI):
Values joined by “and” are separate entries in the source; they are usually repeats but may differ in a detail not shown here. Equal values may be shown once.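 Following 48 hours of exposure in 96-well plates, responses at five concentrations were used to interpolate endpoints linearly. Here, GI50 denotes the concentration required for 50% inhibition of growth. The concentration for full growth arrest is given as TGI.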

What was measured:
Assay in all cases: NCI anticancer screen, dose series, 48 h
IGROV1 ovarian = system: IGROV1 ovarian
TK-10 renal = system: TK-10 renal
SW-620 colon = system: SW-620 colon
A498 renal = system: A498 renal
OVCAR-8 ovarian = system: OVCAR-8 ovarian
SF-295 CNS = system: SF-295 CNS
COLO 205 colon = system: COLO 205 colon
M14 melanoma = system: M14 melanoma
DU-145 prostate = system: DU-145 prostate
NCI/ADR-RES ovarian = system: NCI/ADR-RES ovarian

Row | Compound | TGI (IGROV1 ovarian) | TGI (TK-10 renal) [µM] | TGI (SW-620 colon) | TGI (A498 renal) [µM] | TGI (OVCAR-8 ovarian) | TGI (SF-295 CNS) [µM] | TGI (COLO 205 colon) | TGI (M14 melanoma) [µM] | TGI (DU-145 prostate) [µM] | GI50 (IGROV1 ovarian) [µM] | GI50 (TK-10 renal) [µM] | GI50 (SW-620 colon) [µM] | GI50 (A498 renal) [µM] | GI50 (OVCAR-8 ovarian) | GI50 (SF-295 CNS) [µM] | GI50 (COLO 205 colon) [µM] | GI50 (M14 melanoma) [µM] | TGI (NCI/ADR-RES ovarian) [µM] | GI50 (DU-145 prostate) [µM] | GI50 (NCI/ADR-RES ovarian) [µM]
1 | COC/N=C(/N)NC#N | > 100 µM | > 100 | 33.6 µM | > 100 | > 100 µM | > 100 | 39.2 µM | > 100 | – | – | – | – | – | – | – | – | – | – | – | –
2 | COc1cc2c(c(OC)c1OC)-c1c(cc3c(c1OC)OCO3)CC(C)C(C)(O)C2OC(=O)c1ccccc1 (stereo not drawn) | > 100 µM | > 100 | > 100 µM | > 100 | > 100 µM | > 100 | 53.5 µM | > 100 | > 100 | – | – | – | – | – | – | – | – | – | – | –
3 | Nc1ncnc2c1nnn2C1C=C(CO)C(O)C1O (stereo not drawn) | > 100 µM | > 100 | > 63.1 µM | > 100 | > 100 µM | > 100 | > 50.6 µM | > 100 | – | – | – | – | – | – | – | – | – | – | – | –
4 | O=C(COc1ccc(Cl)cc1)N1CCN(C(=O)COc2ccc(Cl)cc2)c2ccccc21 | > 100 µM | > 100 | > 100 µM | > 100 | > 100 µM | > 100 | > 100 µM | – | – | – | – | – | – | – | – | – | – | – | – | –
5 | O=C(O)COc1ccc(C(=O)/C(SS/C(C(=O)c2ccc(OCC(=O)O)c(Cl)c2Cl)=C2\C=C(c3ccc(Br)cc3)SS2)=C2/C=C(c3ccc(Br)cc3)SS2)c(Cl)c1Cl | 23.1 µM | > 100 | 31.2 µM | > 91.7 | > 76 µM | 43.3 | 14.9 µM | > 91.6 | > 100 | – | – | – | – | – | – | – | – | – | – | –
6 | C/C(=C\Cc1cc(O)ccc1O)CCc1c(C)c(O)c(O)c(C=O)c1C | 41.3 µM | > 100 | > 100 µM | > 100 | 47 µM | 91.5 | 34.4 µM | 77.3 | – | – | – | – | – | – | – | – | – | – | – | –
7 | O=C(O)[C@@H](NS(=O)(=O)c1ccc2ccccc2c1)c1ccccc1 | > 100 µM | – | – | > 100 | – | – | > 100 µM | > 100 | – | – | – | – | – | – | – | – | – | – | – | –
8 | Nc1ccc(C(=O)NN2C(=O)C(Cl)C2c2cccc(O)c2)cc1 (stereo not drawn) | 28.6 µM | 30.5 | 36.6 µM | 58.1 | 54.4 µM | 35.2 | 34.6 µM | 35.2 | – | – | – | – | – | – | – | – | – | – | – | –
9 | C#C[C@H]1CCCCCC1O (stereo partly drawn) | > 100 µM | > 100 | 69.8 µM | > 100 | > 100 µM | > 100 | > 100 µM | > 100 | – | – | – | – | – | – | – | – | – | – | – | –
10 | CCC[CH2][Sn]([CH2]CCC)([O]C(=O)/C=C/c1ccccc1F)[O]C(=O)/C=C/c1ccccc1F | 1.66 µM | 2.03 | 0.479 µM | 2.29 | 2.2 µM | 2.78 | 2.41 µM | 2.22 | – | 0.585 | 0.898 | 0.205 | 1.09 | 0.98 µM | 1.43 | 0.907 | 0.873 | – | – | –
11 | COC(=O)C#CCC1CCCC1C1SCCS1 (stereo not drawn) | > 100 µM | > 100 | > 100 µM | > 100 | > 100 µM | > 100 | > 100 µM | > 100 | – | – | – | – | – | – | – | – | – | – | – | –
12 | CC(=O)Nc1ccc(C(=O)NN2C(=O)C(Cl)C2c2ccc(O)cc2)cc1 (stereo not drawn) | > 100 µM | > 100 | > 100 µM | > 100 | > 100 µM | > 100 | > 100 µM | > 100 | – | – | – | – | – | – | – | – | – | – | – | –
13 | CCC1C(=O)OCc2c1cc1n(c2=O)C(CC)c2c-1nc1ccccc1c2Cl (stereo not drawn) | > 100 µM | > 100 | > 100 µM | 58.1 | – | 66 | 37 µM | > 100 | – | – | – | – | – | – | – | – | – | – | – | –
14 | CCN(CC)CCCC(C)Nc1c(Sc2cnc3cc(Cl)ccc3c2NC(C)CCCN(CC)CC)cnc2cc(Cl)ccc12 (stereo not drawn) | 3.51 µM | 3.24 | 2.92 µM | 3.31 | 3.15 µM | – | 2.88 µM | 3.29 | – | – | – | – | – | – | – | – | – | – | – | –
15 | COc1ccc(-c2onc(-c3c(C)cc(C)cc3C)c2C2=NCCN2)cc1 | > 100 µM | – | > 100 µM | – | > 100 µM | 35.3 | 49 µM | 35.8 | – | – | – | – | – | – | – | – | – | – | – | –
16 | O=C(N/C(=C\c1cc(Cl)ccc1Cl)c1nc2ccc(Cl)cc2[nH]1)c1ccccc1 | 29.8 µM | 10.9 | 31.1 µM | 41.9 | 31.6 µM | 31.3 | 33.6 µM | 31.1 | – | – | – | – | – | – | – | – | – | – | – | –
17 | COc1cccc2c1[C@H]1CO[C@H]3C4C[C@H](C(=O)O)C([C@@H](C2)N13)N4C (stereo partly drawn) | 9.94 µM and 1.59 µM | 5.71 | 8.4 µM and 5.82 µM | – | 7.05 µM and 34.4 µM | > 41.8 | 2.58 µM and 2.41 µM | 6.35 | – | 0.551 | – | 3.61 | – | 2.81 µM and 0.888 µM | – | 0.515 | – | 7.74 | – | –
18 | CCN(CC)CCC(CNc1c(C)cnc2cc(Cl)ccc12)c1ccc(Cl)cc1 (stereo not drawn) | – | 23.8 | 19.6 µM | – | 25.5 µM | 10.7 | – | – | 26 | – | 10.9 | 4.91 | – | 10.8 µM | 2.53 | – | – | 23.5 | 12.8 | 10.2
